Data: patent US10336788B2, “Inhibition of cardiac fibrosis in myocardial infarction” (Moerae Matrix, Inc., priority 2014, dated 2019)
No end group written: not given here.

Assays:
C57BL/6 mice [1] = experiment: Histological analysis of fibrosis (Masson's trichrome, Aperio) of hearts 14 days post-AMI; type: in vivo, mouse
Protocol: Mice were euthanized by isoflurane and cervical dislocation at day 14, fixed in fresh 4% paraformaldehyde for 24 hours, paraffin embedded, processed, and stained with standard hematoxylin and eosin (H&E) and Masson's trichrome (MT). Starting at the ligation with fully faced tissue, 14-15 levels were cut on each block at 50 μm (one slide for H&E, one for MT, and 3 unstained; 50 μm skipped and then repeated). […] The area of fibrosis was analyzed in 3-4 blindly chosen hearts, each heart at 14-15 levels (point of ligation to apex), 3 sections at each level. Analysis of collagen was performed blinded to treatment on these 42-45 sections per heart. Slides were scanned using an Aperio Scanscope (Aperio Technologies, Vista, Calif.) and analyzed using Aperio Imagescope. The Algorithm Positive Pixel Count v9 was used to measure the Masson's trichrome staining of collagen (representing both fibrosis and collagen in extracellular matrix), hue value (0.66) and hue width (0.1) were used analyzed the tissue outlined using the pen tool. Each section was analyzed and exported. The N positive/N total value (representing the % collagen of the entire section) was used to determine a weighted average for each slide.
Hearts were obtained from AMI mice and histologically analyzed for fibrosis in Masson's trichrome stained sections in a systemic manner (FIG. 2A).

C57BL/6 mice [2] = experiment: Survival analysis (Kaplan-Meier) after permanent LAD ligation or daily peptide; type: in vivo, mouse
Source text: Nature Medicine. […] Nature. 2012; 485:593-8]. […] Proc Natl Acad Scie USA. […] Circulation Res. 2009; 105:80-8].
SigmaPlot (Systat Software, Inc., San Jose, Calif.) was used to determine significant statistical differences using a Log-rank (Mantel-Cox) test to determine differences in survival or a Kruskal-Wallis one-way ANOVA for both in vivo and in vitro studies at each terminal time point in experiments run in parallel. If significance was reached (p<0.05), a post-hoc all pairwise Multiple Comparison Procedures (Tukey Test) was performed between each of the groups to determine significance. Significance was defined as p<0.05.

[3] = test system: primary cardiac fibroblasts; experiment: LDH release assay in primary cardiac fibroblasts (1% hypoxia or normoxia); type: cell-based, rat
Protocol: H9C2 is a myoblast cell line derived from rat myocardium obtained from ATCC® (CRL-1446, ATCC, Manassas, Va.) and cultured according to the recommended protocols. Briefly, cells were maintained at 37° C. with 5% CO2 in DMEM supplemented with 10% fetal bovine serum and antibiotics (100 U/ml penicillin, […] streptomycin) and split at a ratio of 1:4 using 0.05% trypsin every 36 hours. […]
Cells were rinsed in PMS and grown in DMEM (cat. #11966-025, Gibco) for 2 hours prior to initiating hypoxia (simulated ischemia). […] Three different time points were adopted for each of the three cell lines according to the severity of cell death under hypoxia determined by LDH release: for H9C2 cell line: 8 hr; 16 hr; 24 hr; for HL-1 cell line: 4 hr; 8 hr; 12 hr; […]; 32 hr; 48 hr.
Cell death was first determined using an LDH release assay (cat. #630117, Clontech), according to the manufacturer's instructions. […] Caspase 3/7 activity was next determined using a commercial Caspase 3/7 activity kit (Cat. #G8091, Promega, Madison, Wis. 53711) in a 384 well plate (Cat. #781903, Greiner bio-one) according to the manufacturer's instructions. […] The resulting cell lysates (25 μl, with 0.6 ug total protein) and Caspase-Glo 3/7 Reagent were added to each well in a 1:1 ratio and the luminescence was read (CLARIOstar, BMG LABTECH GmbH). […]

[4] = test system: pharmacologically relevant receptors; experiment: Cellular functional assays on pharmacologically relevant receptors; type: cell-based; conditions: data not shown

YARAAARQARAKALARQLGVAA [MMI-0100]
histology at the site of infarction (myocyte sparing within scar) (C57BL/6 mice [1]; AMI mice treated with MMI-0100, AMI alone generally all fibrotic): islands of viable myocytes | fibrosis distant to the site of ischemia (histological sections) (C57BL/6 mice [1]; AMI mice treated with MMI-0100 vs AMI): not found to the same extent | less fibrosis than untreated AMI mice (C57BL/6 mice [1]; AMI mice, 50 μg/kg/day from 30 minutes post-AMI, day 14): 50% | fibrosis, area staining blue (Masson's trichrome collagen) (C57BL/6 mice [1]; AMI mice, 50 μg/kg/day from 30 minutes post-AMI, day 14, untreated AMI ~21%): ~11% | survival after AMI with or without MMI-0100 treatment (C57BL/6 mice [2]; AMI mice, daily intraperitoneal dosing, 14 days): no differences in survival | effect on survival, MMI-0100 alone (C57BL/6 mice [2]; mice without AMI, daily MMI-0100 intraperitoneally vs PBS): did not have any effect | LDH release ([3]; 16, 32, and 48 hours of hypoxia): significantly enhanced | LDH release in normoxic conditions ([3]; absence of hypoxia, 4 hours (so in the source)): did not enhance LDH release | effect on pharmacologically relevant receptors in cellular functional assays [4]: no substantial effect
